Source: ChEMBL document CHEMBL1201862, “PubChem BioAssay data set” (2004)
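Assay format: 96-well plates, 48-hour exposure. At the GI50, growth is halved.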 The source made the active and inactive calls. No stated cut-off is given here; in the data, active = GI50 up to about 1.1 µM and inactive = higher.

Columns and labels:
Assay in all cases: NCI anticancer screen, dose series, 48 h
KM12 = tested on: KM12
NCI-H460 = tested on: NCI-H460
786-0 = tested on: 786-0
SK-MEL-2 = tested on: SK-MEL-2
RPMI-8226 = tested on: RPMI-8226
SNB-19 = tested on: SNB-19
EKVX = tested on: EKVX
Malme-3M = tested on: Malme-3M
SNB-75 = tested on: SNB-75
NCI-H23 = tested on: NCI-H23
HCT-116 = tested on: HCT-116
ACHN = tested on: ACHN
COLO 205 = tested on: COLO 205
BT-549 = tested on: BT-549
MOLT-4 = tested on: MOLT-4
OVCAR-4 = tested on: OVCAR-4
IGROV-1 = tested on: IGROV-1
MCF7 = tested on: MCF7
MDA-MB-231 = tested on: MDA-MB-231
CAKI-1 = tested on: CAKI-1
SF-268 = tested on: SF-268
SR = tested on: SR
SW-620 = tested on: SW-620
UACC-62 = tested on: UACC-62
MDA-MB-435 = tested on: MDA-MB-435
SF-539 = tested on: SF-539
DU-145 = tested on: DU-145
HOP-92 = tested on: HOP-92
PC-3 = tested on: PC-3
HCT-15 = tested on: HCT-15
NCI-H522 = tested on: NCI-H522
SK-MEL-28 = tested on: SK-MEL-28
M14 = tested on: M14
HCC 2998 = tested on: HCC 2998
MDA-N = tested on: MDA-N
NCI/ADR-RES = tested on: NCI/ADR-RES
SK-OV-3 = tested on: SK-OV-3
Hs-578T = tested on: Hs-578T
A549 = tested on: A549
HL-60 = tested on: HL-60
TK-10 = tested on: TK-10
UACC-257 = tested on: UACC-257
CCRF-CEM = tested on: CCRF-CEM
U-251 = tested on: U-251
K562 = tested on: K562
SK-MEL-5 = tested on: SK-MEL-5
HOP-62 = tested on: HOP-62
OVCAR-5 = tested on: OVCAR-5
HT-29 = tested on: HT-29
OVCAR-3 = tested on: OVCAR-3
SN12C = tested on: SN12C
T47D = tested on: T47D
LOX IMVI = tested on: LOX IMVI
UO-31 = tested on: UO-31
A498 = tested on: A498
RXF 393 = tested on: RXF 393
SF-295 = tested on: SF-295
NCI-H226 = tested on: NCI-H226
OVCAR-8 = tested on: OVCAR-8

## OC(c1cc2ccc(C(F)(F)F)cc2c2cc(C(F)(F)F)ccc12)C1CCCCN1 (centres undefined)
KM12
  GI50: 2.07 µM (inactive)
NCI-H460
  GI50: 1.95 µM (inactive)
786-0
  GI50: 1.58 µM (inactive)
SK-MEL-2
  GI50: 1.91 µM (inactive)
RPMI-8226
  GI50: 2.17 µM (inactive)
SNB-19
  GI50: 1.84 µM (inactive)
EKVX
  GI50: 0.428 µM (active)
Malme-3M
  GI50: 0.0498 µM (active)
SNB-75
  GI50: 1.29 µM (inactive)
NCI-H23
  GI50: 1.66 µM (inactive)
HCT-116
  GI50: 1.46 µM (inactive)
ACHN
  GI50: 1.33 µM (inactive)
COLO 205
  GI50: 1.59 µM (inactive)
BT-549
  GI50: 1.92 µM (inactive)
MOLT-4
  GI50: 1.41 µM (inactive)
OVCAR-4
  GI50: 1.77 µM (inactive)
IGROV-1
  GI50: 1.74 µM (inactive)
MCF7
  GI50: 1.81 µM (inactive)
MDA-MB-231
  GI50: 1.73 µM (inactive)
CAKI-1
  GI50: 1.8 µM (inactive)
SF-268
  GI50: 1.64 µM (inactive)
SR
  GI50: 2.38 µM (inactive)
SW-620
  GI50: 1.49 µM (inactive)
UACC-62
  GI50: 2.06 µM (inactive)
MDA-MB-435
  GI50: 1.48 µM (inactive)
SF-539
  GI50: 1.69 µM (inactive)
DU-145
  GI50: 1.8 µM (inactive)
HOP-92
  GI50: 1.74 µM (inactive)
PC-3
  GI50: 1.58 µM (inactive)
HCT-15
  GI50: 1.79 µM
NCI-H522
  GI50: 1.7 µM (inactive)
SK-MEL-28
  GI50: 1.91 µM (inactive)
M14
  GI50: 1.88 µM (inactive)
HCC 2998
  GI50: 1.3 µM (inactive)
MDA-N
  GI50: 1.75 µM (inactive)
NCI/ADR-RES
  GI50: 1.82 µM (inactive)
SK-OV-3
  GI50: 2.36 µM (inactive)
Hs-578T
  GI50: 1.9 µM (inactive)
A549
  GI50: 1.8 µM (inactive)
HL-60
  GI50: 31.4 µM (inactive)
TK-10
  GI50: 1.73 µM (inactive)
UACC-257
  GI50: 1.56 µM (inactive)
CCRF-CEM
  GI50: 1.78 µM (inactive)
U-251
  GI50: 1.71 µM (inactive)
K562
  GI50: 1.55 µM (inactive)
SK-MEL-5
  GI50: 1.56 µM (inactive)
HOP-62
  GI50: 1.85 µM (inactive)
OVCAR-5
  GI50: 1.77 µM (inactive)
HT-29
  GI50: 2.07 µM (inactive)
OVCAR-3
  GI50: 1.63 µM (inactive)
SN12C
  GI50: 1.74 µM (inactive)
T47D
  GI50: 1.87 µM (inactive)
LOX IMVI
  GI50: 1.26 µM (inactive)
UO-31
  GI50: 1.41 µM (inactive)

## Cc1cc2c(cc1-c1cc3c(cc1C)C(C(C)C)=C(O)C(=O)/C3=C\Nc1nc(-c3ccccc3)cs1)/C(=C/Nc1nc(-c3ccccc3)cs1)C(=O)C(O)=C2C(C)C
KM12
  GI50: 32.1 µM (inactive)
NCI-H460
  GI50: 18.2 µM (inactive)
786-0
  GI50: 21.8 µM (inactive)
SK-MEL-2
  GI50: 21 µM (inactive)
RPMI-8226
  GI50: 33.9 µM (inactive)
SNB-19
  GI50: 17.1 µM (inactive)
EKVX
  GI50: 18.2 µM (inactive)
Malme-3M
  GI50: 33.8 µM (inactive)
SNB-75
  GI50: 35.4 µM (inactive)
NCI-H23
  GI50: 15.5 µM (inactive)
HCT-116
  GI50: 8.61 µM (inactive)
ACHN
  GI50: 14.9 µM (inactive)
COLO 205
  GI50: 31.6 µM (inactive)
A498
  GI50: 35.6 µM (inactive)
BT-549
  GI50: 23.8 µM (inactive)
MOLT-4
  GI50: 35.7 µM (inactive)
OVCAR-4
  GI50: 30.8 µM (inactive)
RXF 393
  GI50: 15.3 µM (inactive)
IGROV-1
  GI50: 16.8 µM (inactive)
MCF7
  GI50: 18.1 µM (inactive)
MDA-MB-231
  GI50: 10.8 µM (inactive)
CAKI-1
  GI50: 35.7 µM (inactive)
SF-268
  GI50: 24.6 µM (inactive)
SR
  GI50: 32.5 µM (inactive)
SW-620
  GI50: 15.6 µM (inactive)
UACC-62
  GI50: 16.7 µM (inactive)
MDA-MB-435
  GI50: 16.9 µM (inactive)
SF-539
  GI50: 18.2 µM (inactive)
DU-145
  GI50: 23.7 µM (inactive)
SF-295
  GI50: 15.6 µM (inactive)
HOP-92
  GI50: 18.8 µM (inactive)
PC-3
  GI50: 15.7 µM (inactive)
HCT-15
  GI50: 25.4 µM
SK-MEL-28
  GI50: 16.8 µM (inactive)
NCI-H226
  GI50: 22.2 µM (inactive)
M14
  GI50: 12.9 µM (inactive)
MDA-N
  GI50: 41.1 µM (inactive)
NCI/ADR-RES
  GI50: 26.1 µM (inactive)
SK-OV-3
  GI50: 21.1 µM (inactive)
Hs-578T
  GI50: 37.3 µM (inactive)
A549
  GI50: 19.1 µM (inactive)
HL-60
  GI50: 25.7 µM (inactive)
UACC-257
  GI50: 21.8 µM (inactive)
CCRF-CEM
  GI50: 12.6 µM (inactive)
U-251
  GI50: 14.4 µM (inactive)
K562
  GI50: 11.7 µM (inactive)
SK-MEL-5
  GI50: 16.7 µM (inactive)
HOP-62
  GI50: 15.2 µM (inactive)
OVCAR-5
  GI50: > 10 µM (inactive)
HT-29
  GI50: 22.2 µM (inactive)
OVCAR-3
  GI50: 15.3 µM (inactive)
SN12C
  GI50: 22.3 µM (inactive)
T47D
  GI50: 31.9 µM (inactive)
OVCAR-8
  GI50: 25.6 µM (inactive)
UO-31
  GI50: > 10 µM (inactive)
